Laboratory results: US20100069498A1 (ESSENTYS AB, priority 2003, published 2010)
Several values for one entry are separate records, joined by “and”; a condition that tells them apart may be missing. Equal values may be shown once.

Experiments:
[1] = Description: Female piglets (n=9) were purchased from the Texas Department of Criminal Justice, Huntsville, Tex.
Pigs (14 d of age) arrived at the Children's Nutrition Research Center and for a 7-day adjustment period were fed a liquid milk replacer diet (Litter Life, Merrick, Middleton, Wis.) at a rate of 50 g/(kg·d).
Briefly, under isoflurane anesthesia and aseptic conditions, the piglets were implanted with a polyethylene catheter (o.d., 1.27 mm, Becton Dickinson, Sparks, Md.) in the common portal vein, and silastic catheters (o.d., 1.78 mm) in an external jugular vein and a carotid artery.
An ultrasonic flow probe (8 to 10 mm i.d., Transonic, Ithaca, N.Y.) was placed around the portal vein.
A silicone catheter (o.d., 2.17 mm, Baxter Healthcare, McGaw Park, Ill.) was implanted into the lumen of the duodenum. The catheters were filled with sterile saline containing heparin (2.5×10^4 U/L), and exteriorized on either the left flank (portal and duodenal catheters, flow probe leads) or between the scapulae (jugular and carotid catheters).
For plasma amino acid analysis, a 0.2 mL aliquot of plasma was mixed with an equal volume of an aqueous solution of methionine sulfone (4 mmol/L) and centrifuged at 10,000×g for 120 min through a 10-kDa cutoff filter.
A 50 μL aliquot of the filtrate was dried and the amino acids were analyzed by reverse-phase HPLC of their phenylisothiocyanate derivatives (Pico Tag, Waters, Woburn, Mass.).
Plasma ammonia was determined using a spectrophotometric assay kit (171-C, Sigma-Aldrich, St. Louis, Mo.).
Plasma glucose was determined using a spectrophotometric assay kit (315-100; Sigma-Aldrich, St. Louis, Mo.).
Net portal balance of metabolites [μmol/(kg·h)] was calculated as follows:
(Conc.PORT−Conc.ART)×PBF (1)
when Conc. is the concentration in the blood (μmol/L), PORT and ART refer to portal and arterial blood and PBF is portal blood flow [L/(kg·h)].
Piglets were deprived of food for 15 h before initiation of the experiment.
On the day of the experiment, at time −1 h, a primed (7.75 mL/kg; 25% wt/wt aqueous solution; oral), continuous duodenal infusion of milk replacer [Litter Life, Merrick, Middleton, Wis.; 7.75 mL/(kg·h)] prepared as a 25% (wt/wt) aqueous solution which provided ˜920 kJ and 12.5 g protein/(kg·d).

[2] = Mean luminal disappearance of a duodenal AKG bolus; type: in vivo, pigs; settings: duodenal bolus 1040 μmol/kg
Protocol: After 1 h, pigs were sacrificed.
The small intestine was carefully clamped at the proximal duodenum and distal ileum, removed and flushed with 2×50 mL of saline to wash the intestine.

Remark: listed apart in the source
[3] = AKG infusion 930 μmol/(kg·h), P<0.01
[4] = AKG treatment, P<0.05, data not shown
[5] = piglets, duodenal infusion 930 μmol/(kg·h) AKG (3.75% of diet dry matter), ± SEM
[6] = pigs, duodenal infusion 930 μmol/(kg·h) AKG, n = 5
[7] = pigs, duodenal infusion 930 μmol/(kg·h) AKG, n = 5, LSMean ± SEM

Compound: O=C(O)CCC(=O)C(=O)O [AKG, alpha-ketoglutaric acid]
- Effect on net portal appearance of glutamate ([1]; AKG infusion): not affected
- Effect on net portal appearance of glutamine ([1]; AKG infusion): not affected
- Effect on net portal balance of AKG vs control ([1]; AKG infusion 930 μmol/(kg·h)): increased
- Effect on arterial AKG concentration vs control [1, 3]: increased
- Effect on portal AKG concentration vs control [1, 3]: increased
- Increase in proline net portal balance ([1]; AKG treated pigs vs control): 138.1 µmol/kg/h
- Effect on ammonia net portal balance vs control ([1]; AKG treatment, duodenal infusion): not affected
- Effect on net portal balance of glucose vs control ([1]; AKG treatment, duodenal infusion, P<0.05): decreased
- Effect on portal mass balance of leucine vs control ([1]; AKG treatment, P<0.05): increased
- Effect on portal mass balance of lysine vs control ([1]; AKG treatment, P<0.05): increased
- Effect on portal mass balance of proline vs control ([1]; AKG treatment, P<0.05): increased
- Effect on arterial concentration of proline vs control [1, 4]: increased
- Effect on portal concentration of proline vs control [1, 4]: increased
- Effect on portal mass balance of isoleucine vs control ([1]; AKG treatment, P<0.10): tended (P<0.10) to increase
- Effect on portal leucine concentration vs control ([1]; AKG treatment, data not shown): tended (P<0.01) to be increased
- AKG unaccounted for in the portal balance ([1]; duodenal infusion 930 μmol/(kg·h) AKG): over 800 μmol/(kg·h)
- AKG net portal balance, % of infused ([1]; piglets, duodenal infusion 930 μmol/(kg·h) AKG): 10.23 % of infused and 10 % of infused and 10.23 ± 0.57 % of infused
- AKG net portal balance [1, 5]: 95 µmol/kg/h and 95.2 ± 12 µmol/kg/h
- Ammonia net portal balance [1, 5]: 561.1 ± 53 µmol/kg/h
- Arterial AKG [1, 5]: 27.4 ± 3.6 µmol/L
- Glucose net portal balance [1, 5]: 203.9 ± 69 mg/(kg · h)
- Portal AKG [1, 5]: 64.6 ± 5.9 µmol/L
- Net portal balance of Alanine, % of Intake [1, 6]: 189.0 % of Intake
- Net portal balance of Arginine, % of Intake [1, 6]: 98.3 % of Intake
- Net portal balance of Aspartate, % of Intake [1, 6]: 9.6 % of Intake
- Net portal balance of Glutamate, % of Intake [1, 6]: 18.6 % of Intake
- Net portal balance of Glycine, % of Intake [1, 6]: 116.0 % of Intake
- Net portal balance of Histidine, % of Intake [1, 6]: 71.4 % of Intake
- Net portal balance of Isoleucine, % of Intake [1, 6]: 140.0 % of Intake
- Net portal balance of Leucine, % of Intake [1, 6]: 113.4 % of Intake
- Net portal balance of Lysine, % of Intake [1, 6]: 98.8 % of Intake
- Net portal balance of Phenylalanine, % of Intake [1, 6]: 98.7 % of Intake
- Net portal balance of Proline, % of Intake [1, 6]: 114.5 % of Intake
- Net portal balance of Serine, % of Intake [1, 6]: 108.3 % of Intake
- Net portal balance of Threonine, % of Intake [1, 6]: 75.7 % of Intake
- Net portal balance of Tyrosine, % of Intake [1, 6]: 135.9 % of Intake
- Net portal balance of Valine, % of Intake [1, 6]: 108.9 % of Intake
- Net portal balance of Alanine [1, 7]: 557.8 ± 48 µmol/kg/h
- Net portal balance of Arginine [1, 7]: 109.0 ± 19 µmol/kg/h
- Net portal balance of Asparagine [1, 7]: 185.6 ± 18 µmol/kg/h
- Net portal balance of Aspartate [1, 7]: 29.7 ± 6.0 µmol/kg/h
- Net portal balance of Glutamate [1, 7]: 80.1 ± 17 µmol/kg/h
- Net portal balance of Glutamine [1, 7]: 25.5 ± 45 µmol/kg/h
- Net portal balance of Glycine [1, 7]: 177.2 ± 20 µmol/kg/h
- Net portal balance of Histidine [1, 7]: 45.9 ± 3.8 µmol/kg/h
- Net portal balance of Phenylalanine [1, 7]: 95.2 ± 11 µmol/kg/h
- Net portal balance of Serine [1, 7]: 244.7 ± 64 µmol/kg/h
- Net portal balance of Threonine [1, 7]: 210.9 ± 18 µmol/kg/h
- Net portal balance of Tryptophan [1, 7]: 47.2 ± 4.3 µmol/kg/h
- Net portal balance of Tyrosine [1, 7]: 115.8 ± 17 µmol/kg/h
- Net portal balance of Valine [1, 7]: 279.3 ± 32 µmol/kg/h
- Share of the AKG bolus disappeared from the lumen of the duodenum ([2]; 1 h): approximately 64%
- Luminal disappearance as share of the 1040 μmol/kg of infused AKG ([2]; pigs, one hour): 63.8
- Effect on production of CO2 in the whole body (AKG infusion): did not increase
- Effect on NOLD (non-oxidative leucine disposal) vs control (AKG treatment, FIG. 1): not affected
- Effect on Ra (leucine appearance rate) vs control (AKG treatment, FIG. 1): not affected
- Effect on whole-body leucine oxidation vs control (AKG treatment, FIG. 1): not affected
